Experimental findings from ChEMBL document CHEMBL4351003, “Selective Toll-like receptor 7 agonists with novel chromeno[3,4-d]imidazol-4(1H)-one and 2-(trifluoromethyl)quinoline/ quinazoline-4-amine scaffolds” (Eur J Med Chem, 2019) are described below.

A short description of data set [1]: Cytotoxicity against human HEK293 cells transfected with human TLR7/8 assessed as reduction in cell viability incubated for 24 hrs by MTS assay. The format is cell-based. The following applies: read-out: MNCC. (Formazan colour is commonly taken as a measure of viable cells.)
For data set [2], the target named is T1, Toll-like receptor 7 (Homo sapiens) (UniProt Q9NYK1).
T1 sequence (whole entry): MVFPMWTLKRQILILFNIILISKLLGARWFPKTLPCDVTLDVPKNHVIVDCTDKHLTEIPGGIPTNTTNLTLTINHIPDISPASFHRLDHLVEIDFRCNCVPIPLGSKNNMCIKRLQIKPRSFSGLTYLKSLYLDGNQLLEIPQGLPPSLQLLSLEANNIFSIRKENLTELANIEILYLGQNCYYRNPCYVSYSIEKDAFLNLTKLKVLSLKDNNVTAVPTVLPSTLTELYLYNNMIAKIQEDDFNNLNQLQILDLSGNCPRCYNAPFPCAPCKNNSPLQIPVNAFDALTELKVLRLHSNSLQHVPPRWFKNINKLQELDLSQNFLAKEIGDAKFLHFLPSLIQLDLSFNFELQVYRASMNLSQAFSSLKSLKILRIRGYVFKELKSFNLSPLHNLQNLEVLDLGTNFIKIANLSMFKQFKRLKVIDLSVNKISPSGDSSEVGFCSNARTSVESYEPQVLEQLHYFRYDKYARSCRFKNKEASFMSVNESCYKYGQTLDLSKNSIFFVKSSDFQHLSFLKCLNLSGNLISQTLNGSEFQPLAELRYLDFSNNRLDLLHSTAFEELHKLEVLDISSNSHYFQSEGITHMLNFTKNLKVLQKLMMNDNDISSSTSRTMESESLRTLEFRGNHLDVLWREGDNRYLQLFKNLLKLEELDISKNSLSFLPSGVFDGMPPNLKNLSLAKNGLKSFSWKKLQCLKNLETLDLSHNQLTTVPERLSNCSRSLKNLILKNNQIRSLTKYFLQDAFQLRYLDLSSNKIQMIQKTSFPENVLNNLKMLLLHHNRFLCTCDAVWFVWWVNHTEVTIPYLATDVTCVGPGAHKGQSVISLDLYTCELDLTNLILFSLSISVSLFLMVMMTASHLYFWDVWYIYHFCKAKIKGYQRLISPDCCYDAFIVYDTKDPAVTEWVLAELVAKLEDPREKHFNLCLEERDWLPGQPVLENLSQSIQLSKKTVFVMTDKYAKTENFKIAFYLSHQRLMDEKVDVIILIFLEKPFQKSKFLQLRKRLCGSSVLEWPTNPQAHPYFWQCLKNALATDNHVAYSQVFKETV
In words: Antagonist activity at human TLR7 in HEK293 cells cotransfected with SEAP reporter gene assessed as activity of SEAP preincubated for 2 hrs followed by imiquimod addition further incubated for 24 hrs by quanti-blue staining based SEAP reporter gene assay. The format is cell-based.

The target in the next data set is T2, Toll-like receptor 7 (Homo sapiens, UniProt Q9NYK1).
T2 sequence (Q9NYK1 whole entry): T1 sequence (whole entry)
In words: Agonist activity at human TLR7 in HEK293 cells cotransfected with SEAP reporter gene assessed as activity of SEAP incubated for 24 hrs by quanti-blue staining based SEAP reporter gene assay. It counts as cell-based. As to conditions: read-out: EC50. In general terms: A reporter such as luciferase makes a cellular process visible.

Data set [3] has as its target T3, Toll-like receptor 8 (Homo sapiens) (UniProt Q9NR97).
T3 sequence (whole entry): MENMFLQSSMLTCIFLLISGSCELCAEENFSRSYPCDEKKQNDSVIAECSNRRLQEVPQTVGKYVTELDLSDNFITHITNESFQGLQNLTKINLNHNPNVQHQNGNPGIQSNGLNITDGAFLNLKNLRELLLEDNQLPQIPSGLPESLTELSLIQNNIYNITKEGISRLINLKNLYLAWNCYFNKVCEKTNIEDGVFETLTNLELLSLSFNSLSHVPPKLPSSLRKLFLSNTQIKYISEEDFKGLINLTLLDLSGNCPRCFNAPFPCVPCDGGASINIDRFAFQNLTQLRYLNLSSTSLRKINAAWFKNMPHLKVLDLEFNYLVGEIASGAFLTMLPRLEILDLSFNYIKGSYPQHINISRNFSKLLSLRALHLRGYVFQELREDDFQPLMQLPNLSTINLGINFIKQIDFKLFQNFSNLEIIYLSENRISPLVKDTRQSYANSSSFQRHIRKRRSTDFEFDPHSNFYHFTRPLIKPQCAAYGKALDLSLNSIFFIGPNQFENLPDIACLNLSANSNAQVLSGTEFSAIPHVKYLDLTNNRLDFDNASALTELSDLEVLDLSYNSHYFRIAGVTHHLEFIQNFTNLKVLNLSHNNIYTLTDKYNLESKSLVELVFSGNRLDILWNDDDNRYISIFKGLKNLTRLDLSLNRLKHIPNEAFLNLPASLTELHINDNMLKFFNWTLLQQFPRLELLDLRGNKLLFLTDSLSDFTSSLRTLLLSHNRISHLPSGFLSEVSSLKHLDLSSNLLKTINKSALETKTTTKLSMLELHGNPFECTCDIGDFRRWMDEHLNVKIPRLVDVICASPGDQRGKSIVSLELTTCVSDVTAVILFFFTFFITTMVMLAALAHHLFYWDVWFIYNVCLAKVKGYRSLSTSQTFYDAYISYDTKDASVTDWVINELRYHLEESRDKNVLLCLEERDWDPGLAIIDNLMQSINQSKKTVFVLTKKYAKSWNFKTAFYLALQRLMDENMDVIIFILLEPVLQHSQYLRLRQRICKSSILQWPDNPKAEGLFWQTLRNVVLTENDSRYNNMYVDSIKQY
In words: Agonist activity at human TLR8 in HEK293 cells cotransfected with SEAP reporter gene assessed as activity of SEAP incubated for 24 hrs by quanti-blue staining based SEAP reporter gene assay. The format is cell-based.

The test system of data set [4] is PBMC. Put plainly: Induction of IL-8 production in human PBMC at 10 ug/ml incubated for 24 hrs by flow cytometry analysis. It counts as functional, cell-based. On the technique in general: A flow cytometer gives signals particle by particle.
Data set [5] has as its system PBMC. Put plainly: Induction of IL-6 production in human PBMC at 10 ug/ml incubated for 24 hrs by flow cytometry analysis. The format is functional, cell-based.
Data set [6] relates to PBMC. Put plainly: Induction of IL-12p70 production in human PBMC at 10 ug/ml incubated for 24 hrs by flow cytometry analysis. The format is functional, cell-based.
The subject of data set [7] is PBMC. In words: Induction of TNFalpha production in human PBMC at 10 ug/ml incubated for 24 hrs by flow cytometry analysis. It counts as functional, cell-based.

Calls of active or inactive are those of the source. The rule behind the calls is not given here.

By EC50 is commonly meant the concentration giving half of the maximal effect. For `FC(F)(F)c1nc(NC2CCCCC2)c2ccccc2n1`, the MNTC at 24 h in data set [1] was 31.3 µM. Moreover, the result (in data set [2]; in data set [3]; with PBMC [6]; in the data set on PBMC [7]) was inactive. Further, the EC50 at Toll-like receptor 7 is 8.3 µM. The outcome in the data set with PBMC [4] and in the data set on PBMC [5] was Active.

Regarding `FC(F)(F)c1nc(NC2CC2)c2ccccc2n1`, the MNTC at 24 h in data set [1] turned out to be 125 µM. The outcome (in data set [2]; in data set [3]; in the data set with PBMC [6]; with PBMC [7]) was inactive. In addition, the concentration for a half-maximal effect (EC50) at Toll-like receptor 7 worked out at 16.8 µM. Moreover, the result in the data set on PBMC [4] and in the data set with PBMC [5] was Active.

`CC(C)CNc1cc(C(F)(F)F)nc2ccccc12`: the MNTC at 24 h in data set [1] is 62.5 µM. For the same molecule, the outcome (in data set [2]; in data set [3]; in the data set with PBMC [6]; in the data set with PBMC [7]) was inactive. Moreover, at Toll-like receptor 7, the EC50 turned out to be 6.3 µM. In addition, the outcome in the data set on PBMC [4] and in the data set with PBMC [5] was Active.

In the case of `CC(C)Cn1cnc2c(=O)oc3ccc(O)cc3c21`, the MNTC at 24 h in data set [1] came out at 62.5 µM. Moreover, the outcome (in data set [2]; in data set [3]; in the data set on PBMC [4]; in the data set with PBMC [5]; in the data set with PBMC [6]; in the data set on PBMC [7]) was inactive. Also, the 50% effective concentration (EC50) on Toll-like receptor 7 worked out at 1.8 µM.
